“And” between values parts separate entries of the source, which are not always exact repeats. Identical values can stand only once.
Assays:
Parkin ligase = target: T1, Parkin ligase (Homo sapiens, UniProt O60260); test: Activity-Based Probe Assay using Ubiquitin vinyl sulfone probe (TR-FRET); type: biochemical; conditions: heat activated Parkin, HA-Ub-VS probe, activation EC50; read-out: Probe Assay EC50 (μM) [Example 2]
T1 sequence (O60260 1-465): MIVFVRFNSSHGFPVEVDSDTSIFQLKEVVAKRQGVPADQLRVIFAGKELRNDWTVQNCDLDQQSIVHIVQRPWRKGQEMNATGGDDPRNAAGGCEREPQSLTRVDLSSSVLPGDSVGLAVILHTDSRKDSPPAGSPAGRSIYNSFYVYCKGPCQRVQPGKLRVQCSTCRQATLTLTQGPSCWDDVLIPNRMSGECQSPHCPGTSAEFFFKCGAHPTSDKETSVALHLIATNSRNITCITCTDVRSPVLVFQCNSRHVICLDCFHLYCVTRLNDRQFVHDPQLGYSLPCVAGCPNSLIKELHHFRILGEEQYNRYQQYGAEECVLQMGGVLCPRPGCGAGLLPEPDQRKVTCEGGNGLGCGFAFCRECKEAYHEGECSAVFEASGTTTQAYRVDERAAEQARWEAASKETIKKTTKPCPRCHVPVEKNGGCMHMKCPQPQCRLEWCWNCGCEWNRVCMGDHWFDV
Protocol: An Ubiquitin vinyl sulfone probe can be used that irreversibly binds to the active site cysteine of Parkin ligase. Covalent attachment of the probe to the Parkin can be monitored by TR-FRET. Candidate activator compounds can be identified by increasing the activity of Parkin ligase due to an increase in TR-FRET signal. Screening for activating compounds can be distinguished from the controls as follows: 100% activation signal=Heat activated Parkin+100 nM control activator in DMSO. 0% activation signal=Heat activated Parkin+DMSO only. Parkin activators can be identified by an increase of the 0% activation signal TR-FRET signal. Assay Conditions: Materials: • Assay Plate: White 384 well plate (Corning 3572) • Enzyme: Parkin-His tagged 203 μM (10.5 mg/ml) • Probe: Ubiquitin vinyl-sulfone (HA-Ub-VS Boston Biochem U-212) • DMSO: DMSO (Sigma cat #D4540-100ML) • Reaction Buffer: 50 mM HEPES (pH 8.5), 150 mM NaCl, 0.01% Tween 20, 0.1% BSA • Detection Buffer: 50 mM HEPES (pH 8.5), 150 mM NaCl, 0.01% Tween 20, 0.1% BSA, 800 mM KF • Detection Reagent A: 2.6 nM Anti-6HIS-Eu cryptate and 40 nM Anti-HA-XL665 in detection buffer • Eu cryptate: Anti-6HIS-Eu cryptate (CisBio 61HISKLA) • XL665: Anti-HA-XL665 (CisBio 610HAXLA) Enzyme Reaction (15 Min Pre Incubation Parkin with Activator Only) • Parkin: 40 nM • HA-Ub-VS Probe: 70 nM • Activator/DMSO: 2× Activator/2% DMSO Reaction time: 60 minutes Temperature: 22° C. Total volume: 10 μl reaction Detection Reaction Take […] of Enzyme Reaction above and add 10 μl detection Reagent A under the following conditions: • Reaction time: 60 minutes • Temperature: 22° C. • Total volume: 20 μl
Assay procedure (Using HP D-300 compound dispenser and Bravo for the operation):
1) Heat activate Parkin in reaction buffer (500 μl/1.5 ml tube: Eppendorf Thermomixer 5 minutes, 400 rpm at 58° C. and put on ice until needed).
2) Load assay plate wells with 4.8 μl 84.5 nM Parkin in reaction buffer by use of Bravo.
3) Deliver 0.2 μl 200× activator candidates in DMSO by use of HP D-300 compound dispenser. Highest 200× concentration=[…] and then twofold dilutions.
4) Spin 1000 rpm, 2 minutes, at room temp.
5) Incubate plate for 15 minutes at room temp.
6) Add 5 μl 140 nM HA-Ub-VS Probe in reaction buffer by use of Bravo.
7) Spin 1000 rpm, 2 minutes, at room temp.
8) Incubate plate for 60 minutes at room temp.
9) Add 10 μl 2.6 nM Anti-6HIS-Eu cryptate and 40 nM […] in detection buffer.
10) Spin 1000 rpm, 2 minutes, at room temp.
11) Incubate plate for 60 minutes at room temp.
12) Read plates on Perkin Elmer Envision instrument with the following parameters:
LANCE dual laser protocol loaded into the Envision® software
Top Mirror: LANCE/DELFIA Duel/Bias (Bar code 446)
Emission Filter: APC 665 EM (Bar code 205)
2nd Emission Filter: Europium 615 EM (Bar code 203)
Read 655 nm (channel 1) and 615 nm (channel 2) wavelengths on Envision®
Data Analysis: The Data can be read in CSV files. There are two tables in those CSV files, which are the values of 655 nm (channel 1) and 615 nm (channel 2) wavelengths respectively. The data is converted to an HTRF Ratio=(Channel 1/Channel 2)*10,000
The average of all the 0 μM controls (DMSO only)=BKGD (Background—0% activation). Subtract BKGD from each HTRF Ratio value=HTRF−BKGD. The average of all the […] 100 nM control activator in DMSO controls=Max (100% activation). The following equation is then used to calculate % Activation for each well/candidate as follows: % Activation=(HTRF−BKGD/Max)*100.
Graphpad Prism was used with Transform X values: X=Log(X) and nonlinear regression (dose-response-stimulation): Log(agonist) vs Response−variable slope (four parameters) with constrains set to Bottom=0 and Top=100.
The Activity-Based Probe Assay was performed with various compounds in Tables 1, 2, 3A and 3B.

TOV-21G (ovarian) = test: Cancer cell proliferation assay (acid phosphatase); type: cell-based; conditions: Homo sapiens, TOV21G, 72 h, Table 6A; 72 hrs; read-out: TOV-21G IC50
Protocol: Measurement of the inhibitive effect of compounds on cancer cell proliferation was performed. Various cell lines were tested, including HCT-116 (colon); A549 (lung); TOV-21G (ovarian); Calu-6 (lung); and LS-174T (colon); and cell lines H1703 (Lung) and SKOV3 (ovarian); JEKO-1 (lymophoma); TOV-112D (ovarian) are tested. The assays were performed under the following conditions: Cells are harvested at a concentration of 4×10^4 cells/ml in media. Volumes of 100 μl/well of these cell suspensions were added to a 96 well plate using a multichannel pipette. Plates were gently agitated to ensure an even dispersion of cells over a given plate. Cells were then incubated at 37° C., 5% CO2 overnight. Following this, 100 μl of compound at varying concentrations was added to wells in triplicate. Control wells are those with 100 μl media containing 0.33% DMSO added to cell suspension (this is the equivalent volume of DMSO found in the highest concentration of drug). Plates were then gently agitated, as above, and incubated at 37° C., 5% CO2 for 72 hrs (control wells have reached 80-90% confluency). Assessment of cell proliferation in the presence of the compound was determined by the acid phosphatase assay.
Following the incubation period of 72 hrs, media was removed from the plates. Each well on the plate was washed twice with 100 μl PBS. This was then removed and 100 μl of freshly prepared phosphatase substrate (10 mM p-nitrophenol phosphate in 0.1M sodium acetate, 0.1% triton X-100, pH 5.5) was added to each well. The plates were then incubated in the dark at 37° C. for 2 hours. Colour development was monitored during this time. The enzymatic reaction was stopped by the addition of 50 μl of 1N NaOH. The plate was read in a dual beam plate reader at 405 nm with a reference wavelength of 620 nm. The absorbance reading of the latter is subtracted from the former, and the effect of the drug on cell proliferation was then measured as a percentage against the control cells (DMSO), which is taken as 0% inhibition.

Row | SMILES | EC50 (Parkin ligase) | IC50 (TOV-21G (ovarian)) [µM]
1 | c1ccc(-n2nc(NCc3ccccn3)nc2NCc2ccccn2)cc1 [Compound 144] | > 100 µM | 
2 | Cc1ccccc1C(=O)Nc1nc(N[C@H](C)c2ccccc2)nn1-c1ccc(OC(F)(F)F)cc1 [Compound 118] | 1 µM | 
3 | C#Cc1ccc(C(=O)Nc2nc(NC(=O)c3cccc(N=[N+]=[N-])c3)nn2-c2ccccc2)cc1 [Compound 48] | 2 µM | 
4 | Cc1ccccc1C(=O)Nc1nc(NC(=O)c2ccc(N=[N+]=N)cc2)n(-c2ccc(OC(F)(F)F)cc2)n1 [Compound 74] | 0.9 µM | 
5 | Cc1ccccc1C(=O)Nc1nc(-c2ncccc2C)nn1-c1ccc(C(F)(F)F)cc1 [Compound 141] | 1 µM | 
6 | Cc1cccc(C)c1C(=O)Nc1nc(NC(=O)c2c(C)cccc2C)n(-c2ccccc2)n1 [Compound 100] | 9 µM | 
7 | Cc1cncc(F)c1C(=O)Nc1nc(NC(=O)c2c(C)cncc2F)n(-c2ccccc2)n1 [Compound 93] | > 100 µM | 
8 | Cc1ccccc1C(=O)Nc1nc(NC(=O)c2ccc(N=[N+]=[N-])cc2)nn1-c1ccc(OC(F)(F)F)cc1 [Compound 76] | 34 µM | 
9 | Cc1ccccc1C(=O)N(C(=O)c1ccccc1)c1nc(N)n(-c2ccccc2)n1 [Compound 148] | > 100 µM | 
10 | Cc1ccccc1C(=O)Nc1nc(NC(=O)c2ccncc2)nn1-c1cccc(F)c1 [Compound 89] | 2 µM | 
11 | Cc1ccccc1C(=O)Nc1nc(NC(=O)c2ccncc2)nn1-c1ccc(C(F)(F)F)cc1 [Compound 85] | 3 µM | 
12 | Cc1ccccc1C(=O)Nc1nc(NC(=O)c2cccc(N=[N+]=[N-])c2)nn1-c1ccc(OC(F)(F)F)cc1 [Compound 77] | 6 µM | 
13 | Cc1cnccc1C(=O)Nc1nc(NC(=O)c2ccncc2C)n(-c2ccccc2)n1 [Compound 99] | 13 µM | 
14 | Cc1ccccc1C(=O)Nc1nc(NC(=O)C2CNC2)nn1-c1ccccc1 [Compound 43] | > 100 µM | 
15 | Cc1ccccc1C(=O)Nc1nc(NC(=O)[C@@H]2C[C@H](F)CN2)nn1-c1ccccc1 [Compound 3] | 16 µM and > 100 µM | 2.4
16 | Cc1ccccc1C(=O)Nc1nc(NC(=O)c2c(F)cccc2F)nn1-c1ccccc1 [Compound 119] | 2 µM | 
17 | Cc1ccccc1C(=O)Nc1nc(NCc2ccc(Cl)cc2)nn1-c1ccc(OC(F)(F)F)cc1 [Compound 113] | 0.8 µM | 

The remaining lines, values ahead:

Row | EC50 (Parkin ligase) | IC50 (TOV-21G (ovarian)) [µM] | SMILES
18 | 16 µM |  | Cc1ccccc1C(=O)Nc1nc(NC(=O)c2ccccc2C)n(-c2cnn(C)c2)n1 [Compound 47]
19 | > 100 µM |  | Cc1ccccc1C(=O)Nc1nc(-c2cscn2)nn1-c1ccccc1 [Compound 135]
20 | > 100 µM |  | Cc1ccccc1C(=O)Nc1nc(-c2ncccc2F)nn1-c1ccccc1 [Compound 136]
21 | 1 µM |  | Cc1ccccc1C(=O)Nc1nc(N[C@@H](C)c2ccccc2)nn1-c1ccc(C(F)(F)F)cc1 [Compound 120]
22 | 11 µM and 8 µM |  | O=C(Nc1nc(NC(=O)c2ccnc(O)c2)n(-c2ccccc2)n1)c1ccnc(O)c1 [Compound 96]
23 | 3 µM |  | Cc1ccccc1C(=O)Nc1nc(N[C@@H](C)c2ccccc2)nn1-c1ccccc1 [Compound 115]
24 | 7 µM |  | Cc1ccccc1C(=O)Nc1nc(NC(=O)c2cccnc2)nn1-c1cccc(F)c1 [Compound 87]
25 | 14 µM |  | Cc1ccccc1C(=O)Nc1nc(NCCc2ccccn2)nn1-c1ccccc1 [Compound 97]
26 | 2 µM |  | Cc1ccccc1C(=O)Nc1nc(N[C@H](C)c2ccccc2)nn1-c1ccccc1 [Compound 114]
27 | 84 µM |  | Cc1ccccc1C(=O)Nc1nc(NC(=O)C2CCCCN2)nn1-c1ccccc1 (stereo not drawn) [Compound 51]
28 | 24 µM |  | Cc1ccccc1C(=O)Nc1nc(NC(=O)c2ccccc2C)n(-c2ccc(N3CCN(C)CC3)cc2)n1 [Compound 68]
29 | 2 µM |  | O=C(Nc1nc(NC(=O)c2cccnc2)n(-c2cccc(F)c2)n1)c1cccnc1 [Compound 72]
